# Biological target: T1, GPR6 receptor expressed in CHO-K1 cells (Homo sapiens, UniProt P46095)
# T1 construct: expressed in transfected cells
# Test: In vitro inhibition of cAMP (EC50), cell-based HTRF cAMP assay
# Conditions: inhibition of constitutive cAMP activity of GPR6 in CHO-K1 cells
# Method: I. In Vitro Inhibition of cAMP (EC50)
# This cell based assay measures the ability of test compounds to inhibit the constitutive cAMP activity of GPR6 receptor expressed in CHO-K1 cells. CHO cells are stably expressed with GPR6 receptor, whose expression is controlled by a tetracycline inducible element. The cells were cultured in medium containing F12K, 10% FBS, 1% Penn/Strep, 200 μg/mL Hygromycin. GPR6 receptor expression is induced for 20 hours with 2 μg/mL doxycycline (Sigma D9891) in growth media. After addition of doxycycline, the cells are plated at a density of 450-750 cells per well in 96-well half-volume black tissue culture plates (Costar) and placed in an incubator (37° C., 5% CO2) for 20 hours prior to cAMP assays.
# Culture media is removed from the cells and they are washed with 50 μL/well of Ringer's Buffer (MgCl2 0.047 mg/mL, NaH2PO4 0.18 mg/mL, Na2HPO4 0.1 mg/mL, KCl 0.34 mg/mL, NaHCO3 1.26 mg/mL, D-glucose 1.8 mg/mL, NaCl 7 mg/mL; pH=7.4). The test compounds are suspended in DMSO, diluted in Ringer's Buffer containing 0.5% fatty acid free BSA plus 300 μM IBMX, and incubated on the cells for 45 minutes at 37° C. and 5% CO2. After incubation, the cells are conditioned for 10 minutes at room temp with Eu-cAMP tracer solution from a Perkin Elmer Lance HTRF Ultra cAMP assay kit (TRF0263). Then ULight™-anti-cAMP solution from the Lance HTRF kit is added and incubated on a shaker at room temp for 1 hour prior to HTRF detection in a Perkin Elmer Envision plate reader. EC50 curves are generated with a four-parameter logistic equation using GraphPad Prism 5.03.
# Table 1 lists biological assay data (in vitro inhibition of cAMP) for some of the compounds shown in the examples, where larger pEC50 values represent higher activity or potency. All of the compounds shown in Table 1 were tested in accordance with a cell-based assay which measures the ability of test compounds to inhibit the constitutive cAMP activity of GPR6 receptor expressed in CHO-K1 cells (reported as pEC50). The assay is described in the specification under the heading “In vitro inhibition of cAMP (EC50).”
# T1 sequence (P46095 whole entry): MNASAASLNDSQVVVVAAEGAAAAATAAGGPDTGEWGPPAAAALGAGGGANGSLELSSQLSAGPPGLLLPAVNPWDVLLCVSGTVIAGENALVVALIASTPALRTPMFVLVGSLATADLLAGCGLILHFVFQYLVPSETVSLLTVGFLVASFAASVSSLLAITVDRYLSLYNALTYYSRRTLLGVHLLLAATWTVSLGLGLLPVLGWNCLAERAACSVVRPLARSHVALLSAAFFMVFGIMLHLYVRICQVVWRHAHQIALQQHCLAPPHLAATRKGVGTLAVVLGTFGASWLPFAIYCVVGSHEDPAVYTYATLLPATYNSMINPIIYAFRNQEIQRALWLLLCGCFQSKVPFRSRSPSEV
row,Structure (SMILES),"pEC50, in vitro inhibition of cAMP"
1,"Cc1ccc(SC2CCN(c3ncc(C#N)cc3NC(=O)c3ccccn3)CC2)cc1 [Example 69, N-(5-cyano-2-(4-(p-tolylthio)piperidin-1-yl)pyridin-3-yl)picolinamide]",6.7
2,"COc1ncccc1C(=O)Nc1cc(C#N)ccc1N1CCC(C(=O)c2ccccc2)CC1 [Example 70, N-(2-(4-benzoylpiperidin-1-yl)-5-cyanophenyl)-2-methoxynicotinamide]",6.4
3,COc1ncccc1C(=O)Nc1cc(C#N)ccc1N1CCN(Cc2c(F)cccc2Cl)CC1 [Example 71],6.5
4,"COc1ncccc1C(=O)Nc1cc(C#N)ccc1N1CCN(Cc2cccs2)CC1 [Example 72, N-(5-cyano-2-(4-(thiophen-2-ylmethyl)piperazin-1-yl)phenyl)-2-methoxynicotinamide]",6.6
5,"COc1ncccc1C(=O)Nc1cc(C#N)ccc1N1CCN(Cc2ccsc2)CC1 [Example 73, N-(5-cyano-2-(4-(thiophen-3-ylmethyl)piperazin-1-yl)phenyl)-2-methoxynicotinamide]",6.5
6,"COc1nc(C)ccc1C(=O)Nc1cnc(C)nc1N1CCC(Oc2ccc(F)cc2F)CC1 [Example 74, N-(4-(4-(2,4-difluorophenoxy)piperidin-1-yl)-2-methylpyrimidin-5-yl)-2-methoxy-6-methylnicotinamide]",7.1
7,"COc1ncccc1C(=O)Nc1cc(C#N)cnc1N1CCN(Cc2ccc(F)cc2)CC1 [Example 75, N-(5-cyano-2-(4-(4-fluorobenzyl)piperazin-1-yl)pyridin-3-yl)-2-methoxynicotinamide]",7.3
8,"CC(=O)n1ncc2ccc(NC(=O)c3ccccn3)c(N3CCC(Oc4ccc(F)cc4F)CC3)c21 [Example 76, N-(1-acetyl-7-(4-(2,4-difluorophenoxy)piperidin-1-yl)-1H-indazol-6-yl)picolinamide]",<5.7
9,"Cn1ncc2ccc(NC(=O)c3ccccn3)c(N3CCC(Oc4ccc(F)cc4F)CC3)c21 [Example 77, N-(7-(4-(2,4-difluorophenoxy)piperidin-1-yl)-1-methyl-1H-indazol-6-yl)picolinamide]",<5.7
10,"COc1ccc(C(=O)Nc2cc(C#N)ccc2N2CCC(Oc3ccc(F)cc3F)CC2)c(OC)n1 [Example 78, N-(5-cyano-2-(4-(2,4-difluorophenoxy)piperidin-1-yl)phenyl)-2,6-dimethoxynicotinamide]",6.9
11,"Cc1ccc(C(=O)Nc2cc(C#N)ccc2N2CCC(Oc3ccc(F)cc3F)CC2)c(=O)n1C [Example 79, N-(5-cyano-2-(4-(2,4-difluorophenoxy)piperidin-1-yl)phenyl)-1,6-dimethyl-2-oxo-1,2-dihydropyridine-3-carboxamide]",6.8
12,"COc1nc(C)cc(C)c1C(=O)Nc1cc(C#N)ccc1N1CCC(Oc2ccc(F)cc2F)CC1 [Example 80, N-(5-cyano-2-(4-(2,4-difluorophenoxy)piperidin-1-yl)phenyl)-2-methoxy-4,6-dimethylnicotinamide]",6.3
13,"COc1ccc(C(=O)C2CCN(c3ccc(C#N)cc3NC(=O)c3cccn(C)c3=O)CC2)c(F)c1 [Example 81, N-(5-cyano-2-(4-(2-fluoro-4-methoxybenzoyl)piperidin-1-yl)phenyl)-1-methyl-2-oxo-1,2-dihydropyridine-3-carboxamide]",6.9
14,"Cn1cccc(C(=O)Nc2cc(C#N)ccc2N2CCC(C(=O)c3cc(F)ccc3F)CC2)c1=O [Example 82, N-(5-cyano-2-(4-(2,5-difluorobenzoyl)piperidin-1-yl)phenyl)-1-methyl-2-oxo-1,2-dihydropyridine-3-carboxamide]",7.0
15,Cn1cccc(C(=O)Nc2cc(C#N)ccc2N2CCC(C(=O)c3cc(Cl)ccc3F)CC2)c1=O [Example 83],6.9

# Source: patent publication US11426397B2, “Piperidinyl- and piperazinyl-substituted heteroaromatic carboxamides as modulators of GPR6” (TAKEDA PHARMACEUTICAL COMPANY LIMITED, priority 2017, dated 2022)
